Reference: ChEMBL document CHEMBL1201862, “PubChem BioAssay data set” (2004)
Values belong to the compound of their own block, whether it stands above or below them. The source made the active and inactive calls.

Experiments:
[1] = target: C-C chemokine receptor type 6 (Homo sapiens, UniProt P51684); experiment: antagonism of CCR6 beta-arrestin recruitment – cell-based, luminescent beta-arrestin readout, dose response (AID 504728); format: functional
[2] = target: Induced myeloid leukemia cell differentiation protein Mcl-1 (Homo sapiens, UniProt Q07820); format: functional
[3] = target: T1, Calpain-2 catalytic subunit (Sus scrofa, UniProt P43367); experiment: m-calpain protease blockers, concentration series – biochemical, fluorogenic peptide substrate, dose response (AID 1420); format: functional
T1 sequence (P43367 whole entry): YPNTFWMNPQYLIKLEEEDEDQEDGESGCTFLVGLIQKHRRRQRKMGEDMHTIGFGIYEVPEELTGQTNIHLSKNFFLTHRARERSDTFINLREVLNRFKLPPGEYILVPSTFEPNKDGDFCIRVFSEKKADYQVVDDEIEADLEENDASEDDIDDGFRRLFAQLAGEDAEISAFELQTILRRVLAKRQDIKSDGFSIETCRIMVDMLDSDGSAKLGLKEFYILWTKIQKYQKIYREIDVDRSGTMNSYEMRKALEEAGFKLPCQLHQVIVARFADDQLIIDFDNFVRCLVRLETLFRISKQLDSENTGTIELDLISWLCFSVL

[4] = target: Eukaryotic translation initiation factor 4E (Mus musculus, UniProt P63073); experiment: blockers of eIF4G binding by eIF4E – biochemical, TR-FRET, dose response (AID 855); format: functional;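 note: potency for disrupting eIF4E binding to eIF4GI seen as loss of FRET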
[5] = target: T2, Carboxy-terminal domain RNA polymerase II polypeptide A small phosphatase 1 (Homo sapiens, UniProt Q9GZU7); experiment: CTDSP1 inhibitors, concentration-response, biochemical, absorbance readout, ultra-high-throughput screen actives (AID 540297); format: functional
T2 sequence (Q9GZU7 whole entry): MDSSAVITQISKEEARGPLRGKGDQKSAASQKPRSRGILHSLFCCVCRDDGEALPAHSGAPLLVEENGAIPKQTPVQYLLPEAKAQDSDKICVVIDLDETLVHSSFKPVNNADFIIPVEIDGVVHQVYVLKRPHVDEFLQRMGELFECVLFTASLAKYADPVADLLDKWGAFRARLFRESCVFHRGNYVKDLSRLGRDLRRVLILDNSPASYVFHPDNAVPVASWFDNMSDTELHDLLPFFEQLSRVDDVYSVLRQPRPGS

[6] = target: T3, Low molecular weight phosphotyrosine protein phosphatase (Homo sapiens, UniProt P24666); format: functional; conditions: read-out: IC50_Mean
T3 sequence (P24666 whole entry): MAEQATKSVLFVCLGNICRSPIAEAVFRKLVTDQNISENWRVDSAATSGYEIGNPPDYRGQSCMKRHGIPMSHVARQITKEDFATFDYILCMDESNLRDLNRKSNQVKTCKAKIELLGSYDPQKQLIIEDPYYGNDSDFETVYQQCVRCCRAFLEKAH

[7] = target: Beta-galactosidase (Escherichia coli, UniProt Q8VNN2); experiment: detection-enzyme interference by beta-gal modulators – biochemical, E. coli enzyme, set 3, artefact control for CCR6 antagonist project, dose response (AID 504712); format: functional
[8] = target: T3, Low molecular weight phosphotyrosine protein phosphatase; format: functional; conditions: read-out: IC50_Mean; remark: listed apart in the source
[9] = target: Genome polyprotein (Hepatitis C virus, UniProt Q2Q167); experiment: disruption of hepatitis C core self-association – biochemical, TR-FRET, dose response (AID 2159); design: species or system Hepacivirus hominis;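 note: blocks dimerization of HCV core protein measured by TR-FRET between tagged core106 pairs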
[10] = tested on: Staphylococcus aureus; experiment: Inhibitors of Bacterial Quorum Sensing Structure Activity Relationship (SAR) Analysis: Dose Response Assay. [Related pubchem assays: 700, 527 ]; format: functional, organism-based
[11] = target: Acyl-homoserine lactone acylase PvdQ (Pseudomonas aeruginosa (strain LESB58), UniProt Q9I194); experiment: PvdQ acylase enzyme activity blockers – biochemical, fluorescence, plate reader and imaging, cherry-picks, dose response (AID 493231)
[12] = target: T4, G-protein coupled receptor 35 (Homo sapiens, UniProt Q9HC97); experiment: SAR Analysis for the identification of Selective Antagonists of ERK1/2 Activity in GPR35-Overexpressing U2OS Cells. [Related pubchem assays: 2079, 2058 ]; format: functional, cell-based
[13] = target: 26S proteasome non-ATPase regulatory subunit 14 (Homo sapiens, UniProt O00487); experiment: inhibition of proteasome subunit RPN11 – biochemical, fluorescence polarization, uHTS hits, confirmation (AID 602368); format: functional
[14] = target: G-protein coupled receptor 55 (Homo sapiens, UniProt Q9Y2T6); experiment: blockers of GPR55 signalling, imaged – imaging, image-based, counter-screen for GPR35 antagonist project, SAR follow-up (AID 2397); format: functional
[15] = target: T5, Tyrosine-protein phosphatase non-receptor type 22 (Homo sapiens, UniProt Q9Y2R2); experiment: SAR LYP1 Fluorescent Assay using OMFP substrate for In Vitro dose response studies - Set 3. [Related pubchem assays (depositor defined):AID1779, AID1784, AID2140, AID2686]; format: functional
[16] = target: Tyrosine-protein phosphatase non-receptor type 12 (Homo sapiens, UniProt Q05209); experiment: SAR Selectivity Analysis of small molecule inhibitors of PEST using pCAP in a fluorescence assay. [Related pubchem assays (depositor defined):AID1779, AID1784, AID2135]; format: functional
[17] = target: T5, Tyrosine-protein phosphatase non-receptor type 22; experiment: inhibition of lymphoid tyrosine phosphatase LYP – biochemical, pCAP fluorogenic substrate, fluorescence, set 3, SAR follow-up (AID 449727); format: functional
[18] = target: 72 kDa type IV collagenase (Homo sapiens, UniProt P08253); experiment: Dose Response validation of uHTS RPN11 inhibitor hits using a MMP-2 Fluorescence assay.; format: functional
[19] = target: T4, G-protein coupled receptor 35; experiment: inhibition of zaprinast-stimulated GPR35 beta-arrestin translocation – imaging, U2OS, beta-arrestin-GFP, zaprinast agonist, primary screen (AID 2058); format: functional;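 note: antagonist potency meaning inhibition of agonist-induced arrestin redistribution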
[20] = target: Prothrombin (Bos taurus, UniProt P00735); experiment: thrombin protease inhibitors – biochemical, fluorescence polarization, uHTS hits, dose response (AID 602369); format: functional
[21] = HEK-293T cell viability reduction – luminescence, B-cell screen hits, cytotoxicity control for BCR NF-kB inhibitor project, dose response (AID 489021); format: functional, cell-based;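 note: HEK-293T cells carrying an NF-kB luciferase reporter; cells exposed to compound for about 14 hours before viability readout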

T5 sequence (Q9Y2R2 whole entry): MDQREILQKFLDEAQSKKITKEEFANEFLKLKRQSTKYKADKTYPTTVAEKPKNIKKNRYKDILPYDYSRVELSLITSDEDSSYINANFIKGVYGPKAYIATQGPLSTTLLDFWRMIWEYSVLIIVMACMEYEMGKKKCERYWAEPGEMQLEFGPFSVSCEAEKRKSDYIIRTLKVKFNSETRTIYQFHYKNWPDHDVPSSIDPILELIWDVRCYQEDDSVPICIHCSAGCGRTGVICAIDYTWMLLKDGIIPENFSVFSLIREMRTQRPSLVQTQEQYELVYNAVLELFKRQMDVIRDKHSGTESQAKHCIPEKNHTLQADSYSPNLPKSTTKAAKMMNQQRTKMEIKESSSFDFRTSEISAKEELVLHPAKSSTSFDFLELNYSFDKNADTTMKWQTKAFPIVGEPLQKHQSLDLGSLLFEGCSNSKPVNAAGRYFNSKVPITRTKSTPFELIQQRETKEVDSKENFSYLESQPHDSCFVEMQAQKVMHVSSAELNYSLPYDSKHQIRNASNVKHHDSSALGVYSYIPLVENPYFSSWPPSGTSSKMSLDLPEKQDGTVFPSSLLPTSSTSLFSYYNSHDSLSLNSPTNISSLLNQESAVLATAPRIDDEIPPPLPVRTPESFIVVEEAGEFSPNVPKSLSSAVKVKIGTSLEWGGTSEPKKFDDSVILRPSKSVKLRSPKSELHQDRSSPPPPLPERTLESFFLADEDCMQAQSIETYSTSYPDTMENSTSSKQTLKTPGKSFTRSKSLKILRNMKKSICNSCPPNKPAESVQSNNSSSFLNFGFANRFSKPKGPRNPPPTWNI
T4 sequence (Q9HC97 whole entry): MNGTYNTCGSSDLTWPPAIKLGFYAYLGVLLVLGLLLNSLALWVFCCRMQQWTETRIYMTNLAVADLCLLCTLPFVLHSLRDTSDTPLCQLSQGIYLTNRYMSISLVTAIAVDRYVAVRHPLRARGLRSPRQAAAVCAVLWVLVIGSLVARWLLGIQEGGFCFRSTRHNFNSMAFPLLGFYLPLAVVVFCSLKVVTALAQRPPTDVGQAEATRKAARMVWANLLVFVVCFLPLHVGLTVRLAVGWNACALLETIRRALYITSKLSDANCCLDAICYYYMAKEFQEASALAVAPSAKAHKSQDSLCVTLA
Beta-galactosidase, sequence (Q8VNN2 whole entry): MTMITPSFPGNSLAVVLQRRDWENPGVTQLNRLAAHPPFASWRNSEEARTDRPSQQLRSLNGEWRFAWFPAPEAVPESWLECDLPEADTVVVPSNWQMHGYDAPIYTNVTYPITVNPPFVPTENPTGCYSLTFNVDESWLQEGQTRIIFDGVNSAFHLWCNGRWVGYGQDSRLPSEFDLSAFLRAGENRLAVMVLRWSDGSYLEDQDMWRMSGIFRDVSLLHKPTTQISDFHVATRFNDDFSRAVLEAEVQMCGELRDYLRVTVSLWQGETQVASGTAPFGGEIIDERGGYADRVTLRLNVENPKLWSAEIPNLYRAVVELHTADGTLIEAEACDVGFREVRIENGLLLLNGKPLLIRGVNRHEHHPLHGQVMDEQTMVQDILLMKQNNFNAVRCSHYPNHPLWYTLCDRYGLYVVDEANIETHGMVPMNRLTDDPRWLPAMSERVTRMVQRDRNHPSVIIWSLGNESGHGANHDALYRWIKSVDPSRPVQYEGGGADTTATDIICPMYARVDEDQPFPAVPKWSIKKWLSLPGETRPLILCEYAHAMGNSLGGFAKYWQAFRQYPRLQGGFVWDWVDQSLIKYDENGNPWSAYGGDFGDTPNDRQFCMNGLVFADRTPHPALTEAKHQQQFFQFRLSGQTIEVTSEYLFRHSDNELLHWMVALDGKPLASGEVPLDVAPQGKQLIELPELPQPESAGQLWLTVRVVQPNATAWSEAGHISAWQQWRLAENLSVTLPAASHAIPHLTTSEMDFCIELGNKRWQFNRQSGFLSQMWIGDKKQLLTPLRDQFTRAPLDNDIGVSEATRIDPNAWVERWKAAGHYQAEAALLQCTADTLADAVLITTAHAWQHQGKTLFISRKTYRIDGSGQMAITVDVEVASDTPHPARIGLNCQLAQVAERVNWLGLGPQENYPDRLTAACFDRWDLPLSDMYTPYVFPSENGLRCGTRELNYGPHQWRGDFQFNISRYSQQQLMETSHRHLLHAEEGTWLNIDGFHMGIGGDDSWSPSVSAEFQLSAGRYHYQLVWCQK
G-protein coupled receptor 55, sequence (Q9Y2T6 whole entry): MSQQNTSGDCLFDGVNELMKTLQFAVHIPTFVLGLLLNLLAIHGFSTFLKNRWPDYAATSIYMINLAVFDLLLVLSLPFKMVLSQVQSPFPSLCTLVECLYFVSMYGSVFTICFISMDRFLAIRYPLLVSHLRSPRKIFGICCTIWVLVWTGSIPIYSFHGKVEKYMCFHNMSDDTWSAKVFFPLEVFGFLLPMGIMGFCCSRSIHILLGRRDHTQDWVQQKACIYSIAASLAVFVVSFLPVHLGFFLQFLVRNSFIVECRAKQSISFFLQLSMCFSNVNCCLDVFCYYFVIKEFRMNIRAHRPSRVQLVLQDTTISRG
26S proteasome non-ATPase regulatory subunit 14, sequence (O00487 whole entry): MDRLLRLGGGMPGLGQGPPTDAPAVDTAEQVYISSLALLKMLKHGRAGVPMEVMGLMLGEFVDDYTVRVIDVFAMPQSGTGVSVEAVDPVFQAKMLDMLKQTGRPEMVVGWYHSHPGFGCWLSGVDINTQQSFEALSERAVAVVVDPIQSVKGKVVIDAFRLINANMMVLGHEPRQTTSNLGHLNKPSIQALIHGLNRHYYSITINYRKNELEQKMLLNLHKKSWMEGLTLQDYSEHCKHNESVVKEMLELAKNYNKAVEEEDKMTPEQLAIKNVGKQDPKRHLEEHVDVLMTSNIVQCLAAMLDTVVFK
Genome polyprotein, sequence (Q2Q167 whole entry): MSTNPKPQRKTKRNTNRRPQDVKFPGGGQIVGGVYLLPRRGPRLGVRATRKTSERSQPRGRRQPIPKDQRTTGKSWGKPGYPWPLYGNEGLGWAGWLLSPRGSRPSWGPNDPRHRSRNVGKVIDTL
Induced myeloid leukemia cell differentiation protein Mcl-1, sequence (Q07820 whole entry): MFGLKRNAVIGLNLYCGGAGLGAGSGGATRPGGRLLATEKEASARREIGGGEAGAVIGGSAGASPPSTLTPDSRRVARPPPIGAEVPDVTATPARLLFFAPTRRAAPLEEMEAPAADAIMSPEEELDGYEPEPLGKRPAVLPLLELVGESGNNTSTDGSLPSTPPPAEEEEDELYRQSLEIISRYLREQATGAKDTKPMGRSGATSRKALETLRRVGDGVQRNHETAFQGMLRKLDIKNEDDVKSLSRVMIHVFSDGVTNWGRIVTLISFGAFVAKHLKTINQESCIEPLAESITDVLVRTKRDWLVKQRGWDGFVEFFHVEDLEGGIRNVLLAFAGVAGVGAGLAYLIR
Tyrosine-protein phosphatase non-receptor type 12, sequence (Q05209 whole entry): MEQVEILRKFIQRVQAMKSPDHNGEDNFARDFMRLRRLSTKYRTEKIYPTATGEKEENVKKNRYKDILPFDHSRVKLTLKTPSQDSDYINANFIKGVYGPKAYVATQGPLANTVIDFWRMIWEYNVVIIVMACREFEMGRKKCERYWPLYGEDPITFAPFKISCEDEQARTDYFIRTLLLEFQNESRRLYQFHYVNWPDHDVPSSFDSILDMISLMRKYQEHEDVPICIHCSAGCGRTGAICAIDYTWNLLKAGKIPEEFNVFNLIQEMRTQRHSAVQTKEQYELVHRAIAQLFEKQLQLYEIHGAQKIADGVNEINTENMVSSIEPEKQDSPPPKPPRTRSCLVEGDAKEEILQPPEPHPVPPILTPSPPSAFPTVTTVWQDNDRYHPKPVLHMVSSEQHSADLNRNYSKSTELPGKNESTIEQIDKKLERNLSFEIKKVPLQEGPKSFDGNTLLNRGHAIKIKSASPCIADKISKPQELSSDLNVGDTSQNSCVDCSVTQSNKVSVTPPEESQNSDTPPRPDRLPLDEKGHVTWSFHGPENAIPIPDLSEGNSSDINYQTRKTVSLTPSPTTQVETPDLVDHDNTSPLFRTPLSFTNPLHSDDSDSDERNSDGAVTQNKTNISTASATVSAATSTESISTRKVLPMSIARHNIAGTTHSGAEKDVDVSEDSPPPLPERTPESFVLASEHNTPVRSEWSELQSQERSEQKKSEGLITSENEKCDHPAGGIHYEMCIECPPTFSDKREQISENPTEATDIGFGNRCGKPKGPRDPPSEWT
Acyl-homoserine lactone acylase PvdQ, sequence (Q9I194 24-193 limits assumed): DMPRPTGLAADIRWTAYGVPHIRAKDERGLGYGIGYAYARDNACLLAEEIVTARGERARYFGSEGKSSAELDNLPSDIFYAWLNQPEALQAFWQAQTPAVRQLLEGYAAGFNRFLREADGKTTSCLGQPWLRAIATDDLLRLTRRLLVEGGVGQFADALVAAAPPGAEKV
Acyl-homoserine lactone acylase PvdQ, sequence (Q9I194 217-762 limits assumed): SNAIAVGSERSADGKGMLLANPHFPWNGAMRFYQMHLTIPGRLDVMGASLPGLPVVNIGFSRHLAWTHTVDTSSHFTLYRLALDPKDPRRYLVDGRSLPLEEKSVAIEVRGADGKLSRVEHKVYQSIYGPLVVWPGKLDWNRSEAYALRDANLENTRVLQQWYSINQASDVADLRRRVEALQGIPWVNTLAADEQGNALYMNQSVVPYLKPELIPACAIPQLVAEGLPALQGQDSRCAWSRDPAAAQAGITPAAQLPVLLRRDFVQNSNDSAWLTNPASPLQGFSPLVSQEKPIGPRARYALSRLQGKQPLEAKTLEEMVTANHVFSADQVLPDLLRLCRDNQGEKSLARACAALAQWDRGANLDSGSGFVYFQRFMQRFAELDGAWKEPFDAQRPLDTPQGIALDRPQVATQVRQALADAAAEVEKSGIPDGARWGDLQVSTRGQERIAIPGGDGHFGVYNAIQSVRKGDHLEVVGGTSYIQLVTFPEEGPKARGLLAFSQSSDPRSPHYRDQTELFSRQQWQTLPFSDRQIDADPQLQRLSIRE
Eukaryotic translation initiation factor 4E, sequence (P63073 whole entry, the tested form may be a part): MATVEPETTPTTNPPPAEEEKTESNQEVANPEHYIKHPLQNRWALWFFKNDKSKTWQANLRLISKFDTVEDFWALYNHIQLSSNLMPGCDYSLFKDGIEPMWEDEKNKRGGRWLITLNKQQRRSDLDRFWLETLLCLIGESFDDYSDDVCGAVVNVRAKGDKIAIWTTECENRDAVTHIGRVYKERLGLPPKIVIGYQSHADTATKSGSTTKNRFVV

IC50 [1]: > 66.6 µM (inactive) | IC50 [2]: 1.18 µM (active) | IC50 [3]: 4.56 µM (not active) | IC50 [4]: > 64 µM (inactive) | IC50 [5]: 0.711 µM (active) | IC50 [6]: 1.98 µM (active) | IC50 [7]: > 66.6 µM (inactive) | IC50 [8]: 2.89 µM (active) | IC50 [9]: > 49.8 µM (not active)
Compound: O=C(N=Nc1c(O)[nH]c2ccc([N+](=O)[O-])cc12)c1cc(-c2ccccc2Cl)nc2ccccc12

Compound: COc1ccc(CC(=O)Nc2oc(-c3ccccc3)c(-c3ccccc3)c2C#N)cc1
IC50 [10]: 1.96 µM (active)

Compound: CCOC(=O)N1CCN(c2nc3ccccn3c(=O)c2C=O)CC1
AC50 [11]: 32.9 µM (active)

IC50 [12]: 1.2 µM (active) | IC50 [13]: 17.7 µM (active) | IC50 [14]: > 32 µM (inactive) | IC50 [15]: > 100 µM (inactive) | IC50 [16]: 58.8 µM (active) | IC50 [17]: 95.9 µM (active) | IC50 [18]: > 100 µM (inactive) | IC50 [19]: 0.564 µM (active) | IC50 [20]: 23.9 µM (active)
Compound: COc1ccc(/C=C2\SC(=S)N(CCCC(=O)Nc3cccc(C(=O)O)c3)C2=O)cc1OC

Compound: NC(=S)N=Nc1c(O)n(Cc2ccccc2)c2ccccc12
IC50 [21]: > 80 µM (inactive)
